Assays:
E0771 tumors = test: E0771 breast tumor model in syngeneic C57BL/6 J mice (tumor size, VEGFA ELISA, flow cytometry); format: in vivo; details: 10 mg/kg i.p. once daily for 10 days
Procedure: A 1:1 mixture of polyethylene glycol 400 (PEG400) (Merck, 8.17003.1000) and Cremophor EL (Sigma, C5135–500G) was used to dissolve I29 at a concentration of 10 mM and served as the vehicle control. Initially, I29 was suspended in PEG400, after which Cremophor EL was added to the solution. The mixture was then heated to 80 °C until the compound was fully dissolved. Both the compound and vehicle were diluted 1:10 in physiological saline immediately prior to administration to mice at a dose of 10 mg/kg.
E0771 cells (1 × 10^6) were injected subcutaneously into both flanks of 12 female C57BL/6 J mice. Once the primary tumors reached a volume of 100–200 mm^3 (palpable), the mice were randomized into two groups and treated with either I29 or vehicle (Cremophor and PEG400). I29 was administered intraperitoneally (i.p.) once daily for 10 consecutive days at a dose of 10 mg/kg. Twenty-four hours after the final injection, the mice were euthanized. Tumors were excised, weighed, and processed for flow cytometry analysis of immune cells and immune checkpoints, including PD-1 and PD-L1, as well as for VEGFA quantification by ELISA.
The procedure was described in detail in [29]. Briefly, primary subcutaneous tumors derived from E0771 cells were minced into small fragments and enzymatically digested with 0.5 mg/mL Collagenase IV (Sigma) and 40 μg/mL DNase I in RPMI 1640 medium for 30 min at 37°C. The resulting cells were resuspended in HBSS containing 0.5 % FBS and incubated at 4°C for 20 min with the following antibodies (BioLegend): CD45 BV650 (clone 104; 0.6/100), CD11b PerCP-Cy5.5 (clone M1/70; 0.3/100), Ly6C BV421 (clone HK1.4; 0.6/100), Ly6G AF700 (clone 1A8; 0.6/100), F4/80 PE-Cy7 (clone BM8; 0.3/100), PD-L1 APC (clone 10 F.9G2; 1/100), CD3 BV605 (clone 145–2C11; 0.6/100), CD4 AF700 (clone GK1.5; 0.6/100), CD8 BV785 (clone 53–6.7; 0.6/100), and PD1 (clone 29.F1A12; 0.6/100). Cell viability was determined using the LIVE/DEAD™ Fixable Near IR Viability Kit (Invitrogen, L34981). Samples were acquired using a Cytoflex LX flow cytometer with CytExpert software, and data were analyzed with Kaluza 2.0 software (Beckman Coulter).
Within the CD45 + leukocyte population, monocytic myeloid-derived suppressor cells (M) MDSCs (CD11b+Ly6G−Ly6Chi), polymorphonuclear granulocytic (PMN−) MDSCs (CD11b+Ly6G+Ly6Clo), and tumor-associated macrophages (TAMs; CD11b+Ly6Clo/−F4/80 +) were identified. Total T lymphocytes (CD3 +) were gated within CD45 + population, and frequencies of CD3 +CD4 + and CD3 +CD8 +T cells subsets were quantified. PD1 expression was evaluated on CD4 + and CD8 + T cells, while PD-L1 expression was assessed on MDSCs and TAMs. Expression levels are reported as geometric mean fluorescence intensity (gMFI).
For VEGFA measurements in E0771 tumors, tumors were weighed, and 50 mg of each was isolated and lysed in PBS containing protease inhibitors but no EDTA. Following homogenization, samples were frozen overnight and then subjected to repeated freeze-thaw cycles the next day. Insoluble debris was removed by high-speed centrifugation, and the supernatant was quantified using the BCA assay. A total of 190 μg of protein was then analyzed using a mouse VEGF Quantikine ELISA Kit (MMV00, R&D Systems).

[1] = test system: WT and SEPN1 KD C2C12 muscle cells; test: Real-time quantitative RT-PCR of ER stress markers BIP, CHOP, ERO1; format: cell-based; details: 2 μM
From the text: RNA from WT and SEPN1KD C2C12 was reverse-transcribed and analyzed using the Applied Biosystems’ real-time PCR System and the ΔΔCt method. Relative gene expression in cells was normalized to Actin mRNA levels as in [27].

WT and SEPN1 KO mice = test: Whole-body plethysmography in WT and SEPN1 KO mice; format: in vivo; details: 10 mg/kg i.p. once daily for five days
Procedure: Wild-type (WT) and SEPN1 knockout (KO) C57BL/6 male mice, aged 4 months, were fed either a selenium-deficient diet or a diet containing 0,4 ppm selenium for four months (cod. 10105101, Charles River). Experimental protocols followed D.lgs. 26/2014 (authorization 19/2008-A; authorization 465/2023-PR to E. Zito). All animal experiments were performed in accordance with the ARRIVE guidelines and complied with relevant national and international laws, regulations, and policies governing the care and use of laboratory animals, including Italian law.
Wild-type (WT) and SEPN1 knockout (KO) male mice, previously fed a selenium-deficient diet or a diet containing 0.4 ppm selenium, were randomized to receive intraperitoneal (i.p.) injections of I29 or vehicle alone. Treatments were administered once daily for five consecutive days at a dose of 10 mg/kg. Twenty-four hours after the final injection, mice underwent whole-body plethysmography (Whole Body Plethysmography by emkaTechnologies) under baseline conditions in ambient air to assess several respiratory parameters reflecting ventilatory efficiency. In particular, tidal volume (TV), breathing frequency (f), peak inspiratory flow (PIF), and mean inspiratory flow (TV/inspiratory time [TI]) were measured. Both intra- and inter-subject coefficients of variation (CV) for TV and f were also computed.

[2] = selenium-supplemented (0.4 ppm) SEPN1 KO mice

O=C1/C(=C/c2ccc(-c3ccccc3)o2)C(C(F)(F)F)=NN1c1ccccc1F [I29]
tolerability (E0771 tumors; E0771 tumor-bearing mice): well tolerated, with no overt signs of toxicity or weight loss observed | PD-1 expression on CD4+ and CD8+ T cells (E0771 tumors; flow cytometry of tumors): remained unchanged | PD-L1 expression in monocytic myeloid-derived suppressor cells (M-MDSCs) (E0771 tumors; flow cytometry of tumors): statistically significant reduction | VEGFA levels in tumors (ELISA) (E0771 tumors; vs vehicle): reduced | tumor volume (E0771 tumors; vs vehicle): no significant differences | tumor weight (ex vivo) (E0771 tumors; vs vehicle): slight reduction in tumor weight | CHOP expression [1]: downregulate CHOP expression | respiratory function (WT and SEPN1 KO mice; SEPN1 KO mice): failed to improve respiratory function | respiratory parameters (WT and SEPN1 KO mice; WT mice, independent of selenium content in the diet): mild improvement in respiratory parameters | variability in tidal volume (CV TV) (WT and SEPN1 KO mice; selenium-deficient SEPN1 KO mice): increased CV TV | variability in respiratory frequency (CV f) (WT and SEPN1 KO mice; [2]): concomitant reduction in CV f | variability in tidal volume (CV TV) (WT and SEPN1 KO mice; [2]): consistently reduced CV TV

Reference: PMC13198932, “Pyrazolone-based ERO1 inhibitors in ERO1-driven triple-negative breast cancer and SEPN1-related myopathy: Structure–activity relationship and therapeutic potential” (Pharmacological research, 2025)
